Data as given in patent US20240317833A1, “NON-HLA RESTRICTED T CELL VACCINE FOR TCR GAMMA ALTERNATE READING FRAME PROTEIN (TARP) PROTEIN EXPRESSING CANCERS” (PDS BIOTECHNOLOGY CORPORATION, priority 2022, published 2024).
No end group written: not given here.

System: TARP antigen-specific T cells
Assay: IFN-γ ELISPOT on splenocytes of vaccinated HLA-A2 transgenic (AAD) mice, s.c. day 0 and day 7
Assay type: in vivo, HLA-A2 expressing transgenic mice (AAD mice)
Conditions: for TARP 21-40 ELISPOT responses: FIG. 8; for response when used as a stimulatory peptide for the ELISPOT: HLA-A2 transgenic mouse model; for TARP 29-37 (9V) ELISPOT responses: encapsulated in R-DOTAP nanoparticles, stimulatory peptide TARP 29-37 (9V) in water/sucrose
[1] = FIG. 5, formulated in CFA, stimulatory peptide TARP 27-35 (SEQ ID NO:2), antigen dose 100 micrograms
[2] = FIG. 6, formulated with R-DOTAP nanoparticles, stimulatory peptide SEQ ID NO:3 (9V), antigen dose 100 micrograms
[3] = FIG. 7, formulated with R-DOTAP nanoparticles, stimulatory peptide TARP 21-40 (SEQ ID NO:6), antigen dose 100 micrograms
[4] = formulated with R-DOTAP nanoparticles, two immunizations, stimulatory peptide TARP 21-40 (17V) in water/sucrose

## KSS-RRLEHTFVFLRNFSLMLLRG (not fully specified; palmitoylated; SITE 1 Palmitoyl modified residue) [SEQ ID NO:13, palmitoylated TARP 6 (21-40)]
[1]
  antigen-specific ELISPOT responses: no antigen-specific ELISPOT responses
FIG. 6, formulated in CFA, stimulatory peptide SEQ ID NO:3 (9V), antigen dose 100 micrograms
  antigen-specific ELISPOT responses: no antigen-specific ELISPOT responses
[2]
  antigen-specific ELISPOT responses: no antigen-specific ELISPOT responses
FIG. 7, formulated in CFA, stimulatory peptide TARP 21-40 (SEQ ID NO:6), antigen dose 100 micrograms
  antigen-specific ELISPOT responses: no or very weak antigen-specific ELISPOT responses
[3]
  antigen-specific ELISPOT responses: no or very weak antigen-specific ELISPOT responses
[4]
  TARP 21-40 ELISPOT responses: no or very weak TARP 21-40 ELISPOT responses

## FLRNFSLMV (not fully specified) [SEQ ID NO:3]
FIG. 6
  response when used as a stimulatory peptide for the ELISPOT: apparently inactive
[2]
  antigen-specific ELISPOT responses: no antigen-specific ELISPOT responses
[3]
  antigen-specific ELISPOT responses: no or very weak antigen-specific ELISPOT responses
[4]
  TARP 21-40 ELISPOT responses: no or very weak TARP 21-40 ELISPOT responses
FIG. 9, Complete Freund's Adjuvant (CFA), stimulatory peptide TARP 29-37 (9V)
  ELISPOT responses to TARP 29-37 (9V): Very weak or no ELISPOT responses
FIG. 9, two immunizations
  TARP 29-37 (9V) ELISPOT responses: did not appear to elicit any TARP 29-37 (9V) ELISPOT responses

## RRLEHTFVFLRNFSLMLLRG (not fully specified) [SEQ ID NO:6]
[1]
  antigen-specific ELISPOT responses: no antigen-specific ELISPOT responses
[2]
  antigen-specific ELISPOT responses: no antigen-specific ELISPOT responses
FIG. 7
  response when used as a stimulatory peptide for the ELISPOT: inactive or very weakly active
[3]
  antigen-specific ELISPOT responses: no or very weak antigen-specific ELISPOT responses
Complete Freunds Adjuvant (CFA), stimulated with TARP 21-40 (SEQ ID NO:6)
  TARP 21-40 ELISPOT responses: very weakly active
[4]
  TARP 21-40 ELISPOT responses: no or very weak TARP 21-40 ELISPOT responses
FIG. 9, two immunizations
  TARP 29-37 (9V) ELISPOT responses: did not appear to elicit any TARP 29-37 (9V) ELISPOT responses

## SSEEEDE-RRLEHTFVFLRNFSLMLLRG (SSEEEDERRLEHTFVFLRNFSLMLLRG; Anionic amino acids) [SEQ ID NO:21]
[1]
  antigen-specific ELISPOT responses: no antigen-specific ELISPOT responses
[2]
  antigen-specific ELISPOT responses: no antigen-specific ELISPOT responses
FIG. 7, R-DOTAP nanoparticles, antigen dose 100 micrograms
  mice responding to vaccination: two of six
[3]
  antigen-specific ELISPOT responses: no or very weak antigen-specific ELISPOT responses
[4]
  TARP 21-40 ELISPOT responses: no or very weak TARP 21-40 ELISPOT responses

## FVFLRNFSL (not fully specified) [SEQ ID NO:2]
FIG. 5
  response when used as a stimulatory peptide for the ELISPOT: apparently inactive

## KSS-FLRNFSLMV (not fully specified; palmitoylated; SITE 1 Palmitoyl modified residue) [SEQ ID NO:10, palmitoylated TARP 2 (29-37)]
[1]
  antigen-specific ELISPOT responses: no antigen-specific ELISPOT responses
